Source: patent US7374898B2, “Peptide inhibitors against seprase” (The Research Foundation of State University of New York, priority 2004, dated 2008)
Entries after “also recorded” stand apart in the source; their conditions may differ. Where two headings read alike, the source gives them in different places. Where a SMILES comes first, the peptide text is derived from it. Bridges are numbered along the chain shown (N, C = ends).

How the values were obtained:
LOX cells [1] = experiment: Overall collagen degradation by cells, Bodipy FL C5 labelled type I collagen microtiter plate; assay type: cell-based, human; settings: 16 hours, 37° C., FIG. 3A
Description: The assay involves coating 96-well microtiter plates with Bodipy FL C5 labelled type I collagen films. It allows direct measurement of collagen degradation by cells, as the release of fluorescent intensity is in proportion to the degree of collagen degradation. To prepare collagen films, collagen solution mixed with DMEM (1:4 v/v) was coated as a thin layer in each well of a 96-well microtiter plate, and incubated for 1 h at 37° C. to allow gel formation. Labeling of collagen films involved borate buffer, pH 8.3, containing 3 mg of BODIPY FL C5 (Molecular Probes) at 25° C. To determine collagen degradation by cells, LOX cells (10^4/well) were seeded in a 96-well microtiter plate pre-coated with Bodipy FL C5 labeled type I collagen, and incubated in the presence of different concentrations of inhibitors at 37° C. for 16 hours. The increase in fluorescence at 485 nm (excitation)/538 nm (emission) is proportional to the ability of cells to degrade fluorescently labeled collagen films. Change in fluorescent intensity was monitored with a fluorescence microtiter plate reader (Molecular Devices, Sunnyvale, Calif.).

matrix metalloproteinase = settings: supplier information; read-out: Ki of matrix metalloproteinase inhibitor; cited from earlier work
seprase [2] = target: T1, seprase (Homo sapiens, UniProt Q12884); experiment: Prolyl dipeptidase activity of seprase, Gly-Pro-pNA substrate; settings: for inhibition of the prolyl dipeptidase activity of seprase: Gly-Pro-pNA 2 mM, different concentrations of peptides; for inhibition of seprase: FIG. 1
T1 sequence (Q12884 1-760): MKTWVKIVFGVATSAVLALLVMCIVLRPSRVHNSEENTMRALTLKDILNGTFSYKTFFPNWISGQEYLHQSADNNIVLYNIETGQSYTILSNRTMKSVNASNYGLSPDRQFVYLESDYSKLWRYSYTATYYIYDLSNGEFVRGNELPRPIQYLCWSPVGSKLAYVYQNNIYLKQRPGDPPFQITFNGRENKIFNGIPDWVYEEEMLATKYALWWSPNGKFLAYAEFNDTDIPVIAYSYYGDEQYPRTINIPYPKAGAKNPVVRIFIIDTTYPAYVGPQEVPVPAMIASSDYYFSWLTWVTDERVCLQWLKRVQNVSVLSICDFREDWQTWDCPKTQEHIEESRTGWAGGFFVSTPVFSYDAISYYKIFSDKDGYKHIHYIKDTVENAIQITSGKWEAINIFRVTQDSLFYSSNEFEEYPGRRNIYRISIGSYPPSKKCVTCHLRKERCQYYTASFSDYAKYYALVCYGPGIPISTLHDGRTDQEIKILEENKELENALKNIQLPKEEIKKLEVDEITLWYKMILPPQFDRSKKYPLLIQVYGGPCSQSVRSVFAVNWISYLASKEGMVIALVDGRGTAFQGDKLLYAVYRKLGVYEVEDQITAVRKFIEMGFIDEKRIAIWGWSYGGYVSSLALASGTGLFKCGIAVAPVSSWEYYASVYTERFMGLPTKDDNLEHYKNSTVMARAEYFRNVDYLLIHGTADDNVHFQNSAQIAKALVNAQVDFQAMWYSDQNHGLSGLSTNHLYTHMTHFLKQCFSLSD

seprase [3] = target: T1, seprase; experiment: Gelatinolytic activity of seprase, soluble fluorescent DQ-gelatin assay; assay type: biochemical; design: Native seprase, which was isolated from LOX cells grown on type I collagen films according to previously described procedures; endogenous in cells; host or cells: LOX human amelanotic melanoma cells; WGA-enriched fraction, immuno-captured with mAb D8; settings: DQ-gelatin 25 μg/ml, 37° C., 16 hours, FIG. 1B
LOX cells [4] = experiment: Peptide binding to seprase-expressing LOX cells (ELISA and immunofluorescence); assay type: cell-based, human
Description: (§1) It was also determined if synthetic peptides targeting seprase could bind seprase-expressing LOX cells but not seprase-negative tumor cells including the human melanoma cell line SKMEL-28.

SKMEL-28 cells = experiment: Peptide binding to seprase-negative SKMEL-28 cells (ELISA and immunofluorescence); assay type: cell-based, human
Description: as §1

DPP4 = DPP4 (Homo sapiens, UniProt P27487); settings: reported values; read-out: KiDPP4 of reported DPP4 competitive inhibitors; cited from earlier work
Sequence of DPP4 (P27487 whole entry, species assumed): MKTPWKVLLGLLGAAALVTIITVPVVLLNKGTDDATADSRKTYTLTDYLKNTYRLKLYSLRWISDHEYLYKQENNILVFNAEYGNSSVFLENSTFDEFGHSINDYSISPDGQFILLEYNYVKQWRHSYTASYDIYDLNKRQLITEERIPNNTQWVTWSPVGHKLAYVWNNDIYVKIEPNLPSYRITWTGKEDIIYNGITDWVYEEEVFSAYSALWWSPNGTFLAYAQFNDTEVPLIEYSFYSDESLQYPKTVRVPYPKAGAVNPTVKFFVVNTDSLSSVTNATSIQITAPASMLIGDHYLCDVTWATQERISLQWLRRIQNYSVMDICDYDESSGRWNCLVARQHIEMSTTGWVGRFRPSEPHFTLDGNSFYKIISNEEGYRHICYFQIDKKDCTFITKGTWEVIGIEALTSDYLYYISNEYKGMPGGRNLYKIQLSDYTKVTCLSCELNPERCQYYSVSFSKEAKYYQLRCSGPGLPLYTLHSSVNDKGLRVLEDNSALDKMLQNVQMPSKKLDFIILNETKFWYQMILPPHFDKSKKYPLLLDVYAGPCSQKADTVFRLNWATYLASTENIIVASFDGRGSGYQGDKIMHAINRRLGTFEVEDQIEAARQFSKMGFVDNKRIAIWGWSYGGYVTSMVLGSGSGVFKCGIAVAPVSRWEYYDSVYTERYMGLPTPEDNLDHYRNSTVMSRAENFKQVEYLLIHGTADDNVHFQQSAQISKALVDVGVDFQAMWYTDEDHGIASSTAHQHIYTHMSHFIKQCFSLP

LOX cells [5] = experiment: Cell viability, apoptosis and cell death assays on collagen films; assay type: cell-based; design: dose or concentration left out as unconfirmed
Description: In parallel to the assay assessing the overall collagen degradation by LOX cells described above (FIG. 3A), LOX cells grown on collagen films were determined for their physiological responses to peptide or other protease inhibitors in terms of cell viability (FIG. 3B), apoptosis (FIG. 3C) and cell death (FIG. 3D). Cell viability, apoptosis and cell death assays were performed using Molecular Probes (Eugene, Oreg.) Live/Dead Viability/Cytotoxicity kit and Vybrant Apoptosis Assay Kit #4 and followed the manufacturer's instruction. LOX cells (10^4/well) were cultured on a type I collagen coated 96-well microtiter plate in the presence of inhibitors at 37° C. overnight. After washing gently with PBS, dyes for the cell viability assay (Calcein Am, 2 mM, only stained live cells) and for the apoptosis assay (YO-PRO [a fluorescent nuclear dye], 0.25 mM, stained apoptotic cells; ethidium homodimer-1, 4 mM, stained dead cells) were added and incubated at 25° C. for 45 min. The fluorescence intensity was read at the wavelength of 485 nm/538 nm or 544 nm/612 nm. In the LIVE/DEAD Viability/Cytotoxicity Assay, high fluorescent intensity indicates high number of viable cells, whereas in the Vybrant Apoptosis Assay, high fluorescent intensity units indicate high number of apoptotic or dead cells.

[6] = system: human ovarian tumor cells
[7] = system: Human ovarian cancer cells isolated from mouse ascites; experiment: In vitro extracellular matrix degradation and ingestion assay on TRITC-type I collagen films; assay type: cell-based; settings: at 1 mM, 16 to 24 hours
Description: It consists of seeding tumor cells on fluorescently labeled type I collagen films and determining the ability of tumor cells to degrade and ingest the fluorescently labeled extracellular matrix. Two inhibitors, H-Ile-Pro-NHO-PNB (DPP4-specific) and the cyclic peptide [sequence] [SEQ ID NO:3] (seprase-specific) were used. Human ovarian cancer cells isolated from mouse ascites as described in Example 7 were seeded on TRITC-type I collagen films.

GFP-LOX cells = experiment: Melanoma growth and metastasis to lung and liver in nude mice co-inoculated with GFP-LOX cells; assay type: in vivo, NCR Nude mice; settings: CDMWERVSRC 300 μM or control peptide 500 μM, 28 days
Description: Number of GFP-melanoma cells or micrometastases in lung (J) and liver (K) tissues freshly excised from animals was counted per 3×10^5 μm^2 under an epifluorescence microscope.
We next determined whether [sequence] […] GFP-tagged LOX cells, 2×10^5 cells/mouse, were co-inoculated subcutaneously with peptides into flanks of NCR Nude mice, and followed by daily injections of peptide solutions into sites 2 mm adjacent to tumors. […] GFP-tagged LOX cells, 2×10^5 cells suspended in 100 ml of serum-free DMEM, that were pre-incubated with [sequence] [SEQ ID NO: 3] (300 μM) or control peptides (500 μM) were injected subcutaneously into flanks of NCR Nude mice (female; Taconic Co., Germantown, N.Y.). In addition, [sequence] [SEQ ID NO: 3] (300 μM) and control peptides (500 μM) were daily injected into the subcutaneous tissue 2 mm adjacent to tumor sites. Total of 3 mice were used for each experimental or control group. Tumors were measured twice a week. After 28 days, mice were sacrificed by anesthetic overdose. Tissues including primary tumor, lung and liver were removed and examined for GFP tagged melanoma cells and micrometastases by epifluorescence microscopy, followed by enumeration and photography. Melanoma cells in lung and liver were calculated by counting number of GFP-melanoma cells or micrometastases in these tissues freshly excised from animals in a 3×10 μm^2 area in 10 different regions.

CC(C)(C)[C@H](NC(=O)[C@H](CCCc1ccc(Cl)cc1)CC(=O)NO)C(N)=O [CT-1746]
inhibition of overall collagen degradation by LOX cells (words) (LOX cells [1]): inhibited the overall collagen degradation by LOX cells in a dose dependent manner; also recorded: strongest inhibitory effect | Ki (matrix metalloproteinase): 122 nM

REMSDWRV
inhibitory effect relative to DMWERVSR (seprase [2]; % of the effect of DMWERVSR, FIG. 1A): less than 10% | inhibition of overall collagen degradation by LOX cells (words) (LOX cells [1]): did not

CCC(C)C(N)C(=O)N1CCSC1 (stereo not shown) [H-Ile-Thia]
inhibition of the prolyl dipeptidase activity of seprase (seprase [2]; FIG. 1A): inhibit | Ki (seprase [2]; read-out: Ki, prolyl dipeptidase activity of seprase, PBS pH 7.4, 37° C., 8.0 mM Gly-Pro-pNA, FIG. 1D): 100 nM | inhibition of the gelatinolytic activity of seprase (seprase [3]): did not inhibit

GRGTWN [control peptide]
inhibition of the prolyl dipeptidase activity of seprase (seprase [2]; FIG. 1A): no inhibition | inhibition of overall collagen degradation by LOX cells (words) (LOX cells [1]): did not

RKISASEFDRPLR [control peptide]
binding to LOX cells (LOX cells [4]): not | binding to SKMEL-28 cells (SKMEL-28 cells): did not bind

N[C@@H](CCC(=O)NCC(=O)NCC(=O)NCC(=O)NCC(=O)NCC(=O)O)C(=O)N1CCSC1 [H-Glu(Gly5)-Thia]
inhibition of the prolyl dipeptidase activity of seprase (seprase [2]; FIG. 1A): inhibit | Ki (DPP4): 80 nM

CSCC[C@@H]1NC(=O)[C@H](CC(=O)O)NC(=O)[C@@H](N)CSSC[C@@H](C(=O)O)NC(=O)[C@H](CCCNC(=N)N)NC(=O)[C@H](CO)NC(=O)[C@H](C(C)C)NC(=O)[C@H](CCCNC(=N)N)NC(=O)[C@H](CCC(=O)O)NC(=O)[C@H](Cc2c[nH]c3ccccc23)NC1=O (H-CDMWERVSRC-OH; disulfide 1-10 (inferred); N-terminus and C-terminus assumed)
toxicity to cells (LOX cells [5]): not toxic or lethal to cells | increase of catalytic Km value (seprase [2]): 5 times | inhibition at 100 µM (seprase [2]; read-out: inhibition of seprase prolyl dipeptidase activity): > 60% | inhibition of growth in ascites and on peritoneum ([6]; mouse, in vivo, ip): more than 90%

DLDYLSKF
inhibition of seprase (seprase [2]): potent inhibitors | inhibition of the prolyl dipeptidase activity of seprase (seprase [2]; FIG. 1A): inhibit

CC[C@H](C)[C@H](N)C(=O)N1CCC[C@H]1C(=O)NOC(=O)c1ccc([N+](=O)[O-])cc1 [H-Ile-Pro-NHO-PNB]
inhibition of the gelatinolytic activity of seprase (seprase [3]): did not inhibit | inhibition of overall collagen degradation by LOX cells (words) (LOX cells [1]): inhibited the overall collagen degradation by LOX cells in a dose dependent manner | inhibition of overall collagen degradation by LOX cells (words) (LOX cells [1]; listed as H-Ile-Pro-NHO-pNB): weak | block of degradation and ingestion of collagen film [7]: 50% | inhibition of growth in ascites and on peritoneum ([6]; i.p. human ovarian tumor cells, 8 weeks, equimolecular amounts): 50%

GGYR
inhibition of the prolyl dipeptidase activity of seprase (seprase [2]; FIG. 1A): no inhibition

DMWERVSR
inhibition of seprase (seprase [2]): potent inhibitors | activity in inhibiting seprase prolyl dipeptidase compared with other inhibitors (seprase [2]; FIG. 1A): more active than DLDYLSKF | inhibition of the prolyl dipeptidase activity of seprase (seprase [2]; FIG. 1A): inhibit

GGAGDMWERVSRG
binding to LOX cells (LOX cells [4]): strong binding | binding to SKMEL-28 cells (SKMEL-28 cells): did not bind

YISGR [control peptide]
inhibition of the gelatinolytic activity of seprase (seprase [3]): do not | formation of liver micrometastases (GFP-LOX cells): did not | formation of lung micrometastases (GFP-LOX cells): did not | formation of LOX-derived human melanoma (GFP-LOX cells; co-inoculated s.c. and daily injections): did not
